Source: patent publication US20250381269A1, “BISPECIFIC ANTIBODY BINDING EGFR AND B7-H3” (FORTVITA BIOLOGICS (SINGAPORE) PTE. LTD., priority 2022, published 2025)
pEC50, pIC50: −log10 of the molar value.

Key:
H292 [1] = assay: Proliferation inhibition experiment, H292 (NSCLC); assay type: cell-based; settings: EGFR WT, KRAS WT
Procedure: (§1) • (1) NSCLC: plated at 1500-2500 cells/100 μL in a 96-well low-adsorption plate (Corning, CLS7007-24EA) for 3D cell culture, in which the following cell lines and specific amounts were used: • NSCLC: 2000 cells/100 μL/well • NCI-H292: Cell Bank of the Chinese Academy of Sciences, SCSP-582 • NCI-H322: Cobioer, CBP60134 • NCI-H1650: ATCC, CRL-5883 • NCI-H1975: ATCC, CRL-5908 • SK-MES-1: CoBioer, CBP60152 • NCI-H1703: ATCC, HTB-43 • PC9+hB7H3: constructed as described above • CRC and HNSCC: plated at 1500-2000 cells/100 μL in a 96-well white-bottom plate (NUNC, 136101) for 2D cell culture, in which the following cell lines and specific amounts were used: • CRC: 1500 cells/100 μL/well • CCK-81: CoBioer, CBP60581 • HT-55: CoBioer, CBP60012 • H508: CoBioer, CBP60795 • LS180: CoBioer, CBP60034 • HNSCC: 1500 cells/100 μL/well • TE-1: CoBioer, CBP60655 • Colo680: CoBioer, CBP60452. (2) The antibody molecules prepared in advance by dilution were added to the corresponding cell well plate, mixed well, and cultured in an incubator at 37° C. with 5% CO2 for 5 days. • (3) After 5 days of continuous culture for proliferation inhibition assay, the Cell-Titer reagent (Promega, G7572) prepared in advance was added to cell wells, the plate was left to stand at room temperature for 15-25 min in the dark, and then CRC and HNSCC cells were directly detected by a multimode microplate reader (Molecular Devices, Spectra MAXi3). • (4) NSCLC: Cell-Titer and the cell mixture were transferred to a 96-well white-bottom plate (NUNC, 136101) and detected by a multimode microplate reader (Molecular Devices, Spectra MAXi3).

H1703 [2] = assay: ADCC report assay, H1703; assay type: cell-based; settings: EGFR Amplification, KRAS WT, effector/target 10:1, 20 h
Procedure: (§2) In the ADCC report assay, ADCC effector cells ((Promega, G7102)) are engineered cells in which FcRIIIa (V158) receptor is overexpressed into Jurkat T cells, which rapidly respond to ADCC through the NFAT-RE driving element within the Jurkat T cells.
(§3) • (1) Tumor cells (cell lines listed in Table 3) and ADCC effector cells (Promega, G7102) were mixed well (1.5E4 cells: 1.5E5 cells/well/100 μL (1.5E5: 1.5E6 cells/mL)) according to an effector/target ratio (10:1), and added to a 96-well white plate (NUNC, 136101). • (2) The antibody molecules prepared in advance by dilution were added to the corresponding cell well plates, mixed well, and cultured at 37° C. with 5% CO2 for 20 h. • (3) The Bio-glo reagent (Promega, G755B) prepared in advance was added to the cell well plate, the plate was left to stand at room temperature for 10-15 min in the dark, and then the cells were detected by a multimode microplate reader (Molecular Devices, Spectra MAXi3).

H292 [3] = assay: ADCC report assay, H292; assay type: cell-based; settings: EGFR WT, KRAS WT, effector/target 10:1, 20 h
Procedure: as §2, §3

SK-MES-1 = assay: Proliferation inhibition experiment, SK-MES-1 (NSCLC); assay type: cell-based; settings: EGFR Amplification, KRAS WT
Procedure: as §1

[4] = tested on: NCI-H292 tumor-bearing mice; assay: Anti-tumor efficacy in NCI-H292 tumor-bearing mice; assay type: in vivo; settings: NCI-H292, Balb/c Nude mice, 5 mg/kg i.p. Q3-4D x4; for Tumor volume (mm^3): day not printed in column (TGI based on day 22); for Complete response rate @ Day 59: tumor volume of 0, 5 mice per group; for Tumor growth inhibition (%) @ Day 22: vs h-IgG 5 mg/kg
Source text: SPF female Balb/c Nude mice (purchased from Beijing Vital River Laboratory Animal Technology Co., Ltd.) with certificate No. 110011211108430747 were used in the experiment.
NCI-H292 cells were routinely subcultured for the subsequent in-vivo experiment. The cells were collected by centrifugation. Then the NCI-H292 cells were resuspended in an equal-proportion mixture of PBS (1×) and Matrigel Matrix (Corning) to prepare a cell suspension with a cell concentration of 20×10^6 cells/mL. On day 0. 0.2 mL of the cell suspension was taken and subcutaneously inoculated to the right abdominal area of Balb/c Nude mice to establish NCI-H292 tumor-bearing mouse models.
Four days after the tumor cell inoculation, the tumor volume in each mouse was measured. The mice were grouped (with 5 mice in each group).
h-IgG. […] Administration was performed on days 4, 8, 12, and 15 after the inoculation of NCI-H292 cells. Mice were monitored for tumor volume and body weight twice a week. […] Since death of mice due to tumors occurred earlier in some groups, relative tumor growth inhibition (TG1%) was calculated based on the tumor volume on day 22 after the inoculation by the following formula:
TG1%=100%×(control group tumor volume−treatment group tumor volume)/(control group tumor volume−control group tumor volume before administration).
Tumor volume measurement: The maximum length of major axis (L) and maximum length of minor axis (W) of tumors were measured with a vernier caliper, and tumor volume was calculated by the following formula: V=L×W^2/2.
The mice were weighed using an electronic balance. Mice with tumor volumes above 2000 mm3 or weight loss above 20% were euthanized.

H1703 [5] = assay: Proliferation inhibition experiment, H1703 (NSCLC); assay type: cell-based; settings: H1703, EGFR Amplification, KRAS WT
Procedure: as §1

Substance | Max inhibition (%) Mean ± SD (H292 [1]) [%] | pIC50 (H292 [1]; 3D culture, 5 days) | pEC50 (H1703 [2]) | pEC50 (H292 [3]) | Max inhibition (%) Mean ± SD (SK-MES-1) [%] | pIC50 (SK-MES-1; 3D culture, 5 days) | Tumor volume (mm^3) [4] [mm^3] | Complete response rate @ Day 59 [4] | Tumor growth inhibition (%) @ Day 22 [4] [%] | Max inhibition (%) Mean ± SD (H1703 [5]) [%] | pIC50 (H1703 [5]; 3D culture, 5 days)
amivantamab [JNJ372] | 64.5 ± 2.5 | 6.85 | 9.92 | 10.08 | 66.1 ± 3.7 | 8.01 | 177 | 0/5 | 100 | 44.3 ± 3.4 | 9.15
zalutumumab [Zalu mAb] | 79.4 ± 1.6 |  | 11.15 | 11.05 | 67.8 ± 4.1 |  | 96 | 1/5 | 107 | 45.6 ± 3.8 | 
